Test results published in patent publication US12012467B2, “Small molecule DCN1 inhibitors and therapeutic methods using the same” (THE REGENTS OF THE UNIVERSITY OF MICHIGAN, priority 2017, dated 2024).
Square brackets hold non-standard residues; d marks the D form. Peptide text beside a SMILES is read from it. * marks the point of attachment. Ala(6-iPr-benzothiazol-2-yl) = CC(C)c1ccc2nc(C[C@H](N)C(=O)O)sc2c1; 2Nal = N[C@@H](Cc1ccc2ccccc2c1)C(=O)O; NHPhenethyl = c1ccc(CCN*)cc1; NHBn = c1ccc(CN*)cc1; Propionyl = CCC(=O)*; NHPh = c1ccc(N*)cc1

target: DCN1 (Homo sapiens (Human), UniProt Q96GG9); test: Competitive FP binding assay; conditions: bounds given in μM; read-out: Binding affinity to DCN1 (IC50)
Procedure: Competitive FP Binding Assay
The Fluorescence Polarization (FP) competitive binding assays were performed to accurately determine the binding affinities of our DCN1 inhibitors. […] Serial dilutions of proteins were mixed with 46 to a final volume of 200 μl in the assay buffer (100 mM phosphate buffer, pH=6.5, with 0.02% Tween-20 and 2% DMSO). Final probe concentration was 5 nM for both assays. Plates were incubated at room temperature for 30 minutes with gentle shaking to assure equilibrium.
Pure proteins were derived from the same expression and purification protocols. Plasmids were transformed into Rosetta2 cells, the cells were grown in Terrific Broth at 37° C. to an O.D.600>1.0 and induced with 0.4 mM Isopropyl (3-D-1-thiogalactopyranoside overnight at 20° C. The pelleted cells were resuspended in lysis buffer containing 25 mM Tris-HCl, pH 7.5, 200 mM NaCl and protease inhibitors, sonicated and centrifuged at 34,000×g for 45 minutes to remove debris. Cleared lysate was incubated with Ni-NTA resin (Qiagen) prewashed with lysis buffer, for 1 hr at 4° C. The matrix was loaded into a column then washed with 25 mM Tris-HCl, pH 7.5, 200 mM NaCl and 10 mM imidazole. Protein was eluted with 25 mM Tris-HCl, pH 7.5, 200 mM NaCl and 300 mM imidazole, concentrated and applied to a Superdex 75 (GE Healthcare) column pre-equilibrated with 25 mM Tris pH 7.5, 200 mM NaCl and 1 mM DTT. For DCN2-5, the N-terminal His6 tag was removed prior to gel filtration. Tag removal was achieved through incubation with TEV protease during overnight dialysis against 25 mM Tris pH 7.5, 200 mM NaCl and 1 mM DTT and a second Ni-NTA column. DCN2-5 proteins were stored at −80° C. in 1 mg/mL fractions containing 5% glycerol. The uncleaved DCN1 protein was stored at −80° C. without glycerol.

Sequence of DCN1 (Q96GG9 58-259): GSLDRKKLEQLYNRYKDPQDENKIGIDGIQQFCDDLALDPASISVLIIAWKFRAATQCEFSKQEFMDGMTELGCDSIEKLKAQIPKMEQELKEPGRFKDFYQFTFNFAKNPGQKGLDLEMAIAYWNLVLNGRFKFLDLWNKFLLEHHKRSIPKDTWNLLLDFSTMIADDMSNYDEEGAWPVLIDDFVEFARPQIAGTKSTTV

Row | Structure (SMILES) | IC50
1 | CCC(=O)N[C@@H](Cc1ccc2ccccc2c1)C(=O)N[C@H](C(=O)N[C@@H](CCCCN)C(=O)NC1CCCCC1)[C@@H](C)CC [Example 8] | > 3 µM
2 | CCC(=O)N[C@@H](Cc1ccc2ccccc2c1)C(=O)N[C@H](C(=O)N[C@@H](CCCCN)C(=O)Nc1ccccc1)[C@@H](C)CC [Example 9] (Propionyl-[2Nal]-Ile-Lys-NHPh) | > 10 µM
3 | CCC(=O)N[C@@H](Cc1ccc2ccccc2c1)C(=O)N[C@H](C(=O)N[C@@H](CCCCN)C(=O)NCCc1ccccc1)[C@@H](C)CC [Example 11] (Propionyl-[2Nal]-Ile-Lys-NHPhenethyl) | > 10 µM
4 | CCC(=O)N[C@@H](Cc1ccc2ccccc2c1)C(=O)N[C@@H](CC(F)(F)F)C(=O)N[C@@H](CCCCN)C(=O)NC(c1ccccc1)c1ccccc1 [Example 23] | > 1 µM
5 | CCC(=O)N[C@@H](Cc1nc2c(F)cccc2s1)C(=O)N[C@H](C(=O)N[C@@H](CCCCN)C(=O)NC(c1ccccc1)c1ccccc1)C1CCCC1 [Example 26] | > 3 µM
6 | CCC(=O)N[C@@H](Cc1nc2ccc(Cl)cc2s1)C(=O)N[C@H](C(=O)N[C@@H](CCCCN)C(=O)N[C@@H]1CCOc2ccccc21)C1CCNCC1 [Example 35] | > 5 µM
7 | CCC(=O)N[C@H](Cc1nc2ccc(Cl)cc2s1)C(=O)N[C@H](C(=O)N[C@@H](CCCCN)C(=O)N[C@@H]1CNCc2ccccc21)C1CCOCC1 [Example 44] | > 1 µM

same assay, conditions: read-out: Binding affinity to DCN1 (IC50 (nM))

Row | Structure (SMILES) | IC50
8 | CC[C@H](C)[C@H](NC(=O)[C@H](Cc1nc2ccc(Cl)cc2s1)NC(C)=O)C(=O)N[C@@H](CCCCN)C(=O)N[C@@H](CC(C)C)C(N)=O [Example 4, (S)-2-((2S,3 S)-2-((S)-2-acetamido-3-(6-chlorobenzo[d]thiazol-2-yl)propanamido)-3-methylpentanamido)-6-amino-N—((S)-1-amino-4-methyl-1-oxopentan-2-yl)hexanamide] | 0.116 µM
9 | CC[C@H](C)[C@H](NC(=O)[C@H](Cc1nc2ccc(C(C)C)cc2s1)NC(C)=O)C(=O)N[C@@H](CCCCN)C(=O)N[C@@H](CC(C)C)C(N)=O [Example 5, (S)-2-((2S,3 S)-2-((S)-2-acetamido-3-(6-isopropylbenzo[d]thiazol-2-yl)propanamido)-3-methylpentanamido)-6-amino-N—((S)-1-amino-4-methyl-1-oxopentan-2-yl)hexanamide] (Ac-[Ala(6-iPr-benzothiazol-2-yl)]IKL-NH2) | 0.0401 µM
10 | CC[C@H](C)[C@H](NC(=O)[C@H](Cc1nc2ccc(C(C)C)cc2s1)NC(C)=O)C(=O)N[C@@H](CCCCN)C(N)=O [Example 6, (S)-2-((2S,3 S)-2-((S)-2-acetamido-3-(6-isopropylbenzo[d]thiazol-2-yl)propanamido)-3-methylpentanamido)-6-aminohexanamide] | 0.632 ± 0.029 µM
11 | CC[C@H](C)[C@H](NC(=O)[C@H](Cc1nc2ccc(C(C)C)cc2s1)NC(C)=O)C(N)=O [Example 7, (2S,3S)-2-((S)-2-acetamido-3-(6-isopropylbenzo[d]thiazol-2-yl)propanamido)-3-methylpentanamide] | 1.04 ± 0.128 µM
12 | CCC(=O)N[C@@H](Cc1ccc2ccccc2c1)C(=O)N[C@H](C(=O)N[C@@H](CCCCN)C(=O)NCc1ccccc1)[C@@H](C)CC [Example 10] (Propionyl-[2Nal]-Ile-Lys-NHBn) | 3.9 µM
13 | CCC(=O)N[C@@H](Cc1ccc2ccccc2c1)C(=O)N[C@H](C(=O)N[C@@H](CCCCN)C(=O)NC(c1ccccc1)c1ccccc1)[C@@H](C)CC [Example 12] | 0.611 ± 0.193 µM
14 | CCC(=O)N[C@@H](Cc1ccc2ccccc2c1)C(=O)N[C@H](C(=O)N[C@@H](CCCCN)C(=O)N[C@@H]1CCc2ccccc21)[C@@H](C)CC [Example 13] | 0.913 µM
15 | CCC(=O)N[C@@H](Cc1ccc2ccccc2c1)C(=O)N[C@H](C(=O)N[C@@H](CCCCN)C(=O)N[C@H]1CCc2ccccc21)[C@@H](C)CC [Example 14] | 1.93 µM
16 | CCC(=O)N[C@@H](Cc1ccc2ccccc2c1)C(=O)N[C@H](C(=O)N[C@@H](CCCCN)C(=O)N[C@@H]1CCCc2ccccc21)[C@@H](C)CC [Example 15] | 0.461 µM
17 | CCC(=O)N[C@@H](Cc1ccc2ccccc2c1)C(=O)N[C@H](C(=O)N[C@@H](CCCCN)C(=O)N[C@H]1CCCc2ccccc21)[C@@H](C)CC [Example 16] | 0.795 µM
18 | CCC(=O)N[C@@H](Cc1ccc2ccccc2c1)C(=O)N[C@H](C(=O)N[C@@H](CCCCN)C(=O)N[C@@H]1CCOc2ccccc21)[C@@H](C)CC [Example 17] | 0.651 µM
19 | CCC(=O)N[C@@H](Cc1ccc2ccccc2c1)C(=O)N[C@H](C(=O)N[C@@H](CCCCN)C(=O)N[C@H]1CCOc2ccccc21)[C@@H](C)CC [Example 18] | 3.05 µM
20 | CCC(=O)N[C@@H](Cc1ccc2ccccc2c1)C(=O)N[C@H](C(=O)N[C@@H](CCCCN)C(=O)NC(c1ccccc1)c1ccccc1)C1CCCC1 [Example 19] | 0.27 µM
21 | CCC(=O)N[C@@H](Cc1ccc2ccccc2c1)C(=O)N[C@H](C(=O)N[C@@H](CCCCN)C(=O)NC(c1ccccc1)c1ccccc1)C1CCCCC1 [Example 20] | 0.341 µM
22 | CCC(=O)N[C@@H](Cc1ccc2ccccc2c1)C(=O)N[C@@H](CC1CCCCC1)C(=O)N[C@@H](CCCCN)C(=O)NC(c1ccccc1)c1ccccc1 [Example 21] | 0.29 µM
23 | CCC(=O)N[C@@H](Cc1ccc2ccccc2c1)C(=O)N[C@@H](CC(C)(C)C)C(=O)N[C@@H](CCCCN)C(=O)NC(c1ccccc1)c1ccccc1 [Example 22] | 0.361 µM
24 | CCC(=O)N[C@@H](Cc1ccc2ccccc2c1)C(=O)N[C@@H](Cc1cccs1)C(=O)N[C@@H](CCCCN)C(=O)NC(c1ccccc1)c1ccccc1 [Example 24] | 0.967 µM

Row | Structure (SMILES) | IC50
25 | CCC(=O)N[C@@H](Cc1nc2ccccc2s1)C(=O)N[C@H](C(=O)N[C@@H](CCCCN)C(=O)NC(c1ccccc1)c1ccccc1)C1CCCC1 [Example 25] | 0.397 µM
26 | CCC(=O)N[C@@H](Cc1nc2cc(F)ccc2s1)C(=O)N[C@H](C(=O)N[C@@H](CCCCN)C(=O)NC(c1ccccc1)c1ccccc1)C1CCCC1 [Example 27] | 1.2 µM
27 | CCC(=O)N[C@@H](Cc1nc2ccc(F)cc2s1)C(=O)N[C@H](C(=O)N[C@@H](CCCCN)C(=O)NC(c1ccccc1)c1ccccc1)C1CCCC1 [Example 28] | 0.413 µM
28 | CCC(=O)N[C@@H](Cc1nc2cc(Cl)ccc2s1)C(=O)N[C@H](C(=O)N[C@@H](CCCCN)C(=O)NC(c1ccccc1)c1ccccc1)C1CCCC1 [Example 29] | 0.572 µM
29 | CCC(=O)N[C@@H](Cc1nc2ccc(Cl)cc2s1)C(=O)N[C@H](C(=O)N[C@@H](CCCCN)C(=O)NC(c1ccccc1)c1ccccc1)C1CCCC1 [Example 30] | 0.193 µM
30 | CCC(=O)N[C@@H](Cc1nc2cccc(Cl)c2s1)C(=O)N[C@H](C(=O)N[C@@H](CCCCN)C(=O)NC(c1ccccc1)c1ccccc1)C1CCCC1 [Example 31] | 0.137 µM
31 | CCC(=O)N[C@@H](Cc1nc2ccc(Cl)cc2s1)C(=O)N[C@H](C(=O)N[C@@H](CCCCN)C(=O)N[C@@H]1CCCc2ccccc21)C1CCCC1 [Example 32] | 0.157 µM
32 | CCC(=O)N[C@@H](Cc1nc2ccc(Cl)cc2s1)C(=O)N[C@H](C(=O)N[C@@H](CCCCN)C(=O)N[C@@H]1CCOc2ccccc21)C1CCCC1 [Example 33] | 0.103 µM
33 | CCC(=O)N[C@@H](Cc1nc2ccc(Cl)cc2s1)C(=O)N[C@H](C(=O)N[C@@H](CCCCN(C)C)C(=O)N[C@@H]1CCOc2ccccc21)C1CCCC1 [Example 34] | 0.0179 µM
34 | CCC(=O)N[C@@H](Cc1nc2ccc(Cl)cc2s1)C(=O)N[C@H](C(=O)N[C@@H](CCCCN)C(=O)N[C@@H]1CCOc2ccccc21)C1CCOCC1 [Example 37] | 0.049 µM
35 | CCC(=O)N[C@@H](Cc1nc2ccc(Cl)cc2s1)C(=O)N[C@H](C(=O)N[C@@H](CCCCN(C)C)C(=O)N[C@@H]1CCOc2ccccc21)C1CCOCC1 [Example 38] | 0.123 µM
36 | CCC(=O)N[C@@H](Cc1nc2ccc(Cl)cc2s1)C(=O)N[C@H](C(=O)N[C@@H](CCCCN)C(=O)N[C@@H]1CNCc2ccccc21)C1CCCC1 [Example 39] | 0.173 µM
37 | CCC(=O)N[C@@H](Cc1nc2ccc(Cl)cc2s1)C(=O)N[C@H](C(=O)N[C@@H](CCCCN(C)C)C(=O)N[C@@H]1CN(C)Cc2ccccc21)C1CCCC1 [Example 40] | 0.163 µM
38 | CCC(=O)N[C@@H](Cc1nc2ccc(Cl)cc2s1)C(=O)N[C@H](C(=O)N[C@@H](CC1CCNCC1)C(=O)N[C@@H]1CCOc2ccccc21)C1CCOCC1 [Example 41] | 0.222 µM
39 | CCC(=O)N[C@@H](Cc1nc2ccc(Cl)cc2s1)C(=O)N[C@H](C(=O)N[C@@H](CC1CCN(C)CC1)C(=O)N[C@@H]1CCOc2ccccc21)C1CCOCC1 [Example 42] | 0.299 µM
40 | CCC(=O)N[C@@H](Cc1nc2ccc(Cl)cc2s1)C(=O)N[C@H](C(=O)N[C@@H](CCCCN)C(=O)N[C@@H]1CNCc2ccccc21)C1CCOCC1 [Example 43] | 0.0843 µM
41 | CCC(=O)N[C@@H](Cc1nc2ccc(Cl)cc2s1)C(=O)N[C@@H](C[C@H]1CC[C@H](CN)CC1)C(=O)N[C@@H](CCCCN(C)C)C(=O)N[C@@H]1CCOc2ccccc21 [Example 45] | 0.116 µM
